Data taken from ChEMBL document CHEMBL1144517, “Structural requirement of chalcones for the inhibitory activity of interleukin-5” (Bioorg Med Chem, 2007).

How the values were obtained:
[1] = Inhibition of IL5 in mouse Y16 cells […]; format: functional, cell-based
[2] = Inhibition of IL5 in mouse Y16 cells; format: functional; set-up: concentration or dose not given beside the values

Row | SMILES | IC50 [1] [µM] | Inhibition [2] [%]
1 | O=C(/C=C/c1ccc(O)cc1)c1c(O)cccc1OCc1ccccc1 | 25.3 | 78.8
2 | NS(=O)(=O)c1ccc(/C=C/C(=O)c2c(O)cccc2OCc2ccccc2)cc1 | 7 | 99.5
3 | O=Cc1ccc(/C=C/C(=O)c2c(O)cccc2OCC2CCCCC2)cc1 | 4.5 | 99.8
4 | O=C(O)c1cccc(/C=C/C(=O)c2c(O)cccc2OCC2CCCCC2)c1 | 14.1 | 98.1
5 | O=C(O)c1ccc(/C=C/C(=O)c2c(O)cccc2OCc2ccccc2)cc1 | 10.2 | 100
6 | O=C(/C=C/c1ccc(Cl)cc1)c1c(O)cccc1OCC1CCCCC1 | 7.1 | 98.8
7 | O=C(/C=C/c1ccc(O)cc1)c1c(O)cccc1OCC1CCCCC1 | 12.6 | 99
8 | NS(=O)(=O)c1ccc(/C=C/C(=O)c2c(O)cccc2OCC2CCCCC2)cc1 | 1.8 | 99.5
9 | O=C(O)c1ccccc1/C=C/C(=O)c1c(O)cccc1OCC1CCCCC1 | > 50 | -18.9
10 | CC(=O)Nc1ccc(/C=C/C(=O)c2c(O)cccc2OCC2CCCCC2)cc1 | 6.4 | 99.2
11 | COCOc1ccc(/C=C/C(=O)c2c(O)cccc2OCc2ccccc2)cc1 | > 50 | 47.8
12 | CCc1ccc(/C=C/C(=O)c2c(O)cccc2OCC2CCCCC2)cc1 | 27.9 | 82.3
13 | O=C(O)c1ccc(CCC(=O)c2c(O)cccc2OCC2CCCCC2)cc1 | > 50 | 15.6
14 | O=C(O)c1ccc(/C=C/C(=O)c2c(O)cccc2OCC2CCCCC2)cc1 | 9.4 | 100
15 | COCOc1ccc(/C=C/C(=O)c2c(O)cccc2OCC2CCCCC2)cc1 | > 50 | 13
16 | O=C(O)c1ccc(/C=C/C(=O)c2ccccc2O)cc1 | > 50 | -18.7
17 | O=C(O)c1ccc(/C=C/C(=O)c2ccc(OCc3ccccc3)cc2O)cc1 | 14.2 | 100
18 | O=C(/C=C/c1ccc(O)cc1)c1ccc(OCc2ccccc2)cc1O | 28.8 | 77.6
19 | O=C(O)c1ccc(/C=C/C(=O)c2ccccc2OCc2ccccc2)cc1 | > 50 | 15
20 | O=C(/C=C/c1ccc(O)cc1)c1ccccc1O | 48.2 | 50
21 | COC(=O)c1ccc(/C=C/C(=O)c2c(O)cccc2OCC2CCCCC2)cc1 | 3.9 | 98.6
22 | O=C(/C=C/c1ccccc1)c1c(O)cccc1OCC1CCCCC1 | 14.3 | 99.6
23 | O=C(/C=C/c1ccc(O)cc1)c1ccc(OCC2CCCCC2)cc1O | 21.4 | 59.7
24 | O=C(/C=C/c1ccc(CO)cc1)c1c(O)cccc1OCC1CCCCC1 | 6.4 | 99.3
25 | O=C(O)c1ccc(/C=C/C(=O)c2ccc(OCC3CCCCC3)cc2O)cc1 | 10.8 | 100
26 | Nc1ccc(/C=C/C(=O)c2c(O)cccc2OCC2CCCCC2)cc1 | > 50 | 16.4
